Data reported in patent US20160220677A1, “STABLE AQUEOUS COMPOSITIONS OF PROSTGLANDIN AGONIST PRODRUGS AND METHODS FOR USE THEREOF” (Allergan, Inc., priority 2009, published 2016).

Experiment: Aqueous stability of formulations, % recovery by HPLC
Type: physicochemical
Conditions: 30° C.; 45 days; each formulation (Formulations 1-4)
Method: The aqueous stability of invention compositions was evaluated using Compounds 2 and 3.
The formulations were analyzed by HPLC with the following measurement parameters:
Column: BioWidePore C18 (SUPELCO), 4.6 mm×25 cm, 5 μm Mobile Phase A: 0.1% (V/V) trifluoroacetic acid (TFA) in di-water, 0.8 micron filtered Mobile Phase B: 100% acetonitrile, 0.8 micron filtered Column temp: Ambient Injection volume: 30 μL
Flow: 1.0 mL/min Run time: 25 minutes Sample diluent: 50% acetonitrile in di-water
Using the above HPLC parameters, the following stability data was generated: […]

## CCCCCC(O)c1ccc(N2C(=O)CC[C@@H]2CCCc2ccc(C(=O)OCCO)s2)cc1 (stereo partly shown) [Compound 2]
  stability in each formulation: stable
